In assay [1] the test system is KCNQ3*[Trp265TAG] rescued with F3-Trp. Description: Two-electrode voltage clamp of F3-Trp-rescued KCNQ3*[Trp265TAG] channels (nonsense suppression). Type of assay: cell-based, human. Particulars: for drug potency relative to Trp-rescued channels: F3-Trp substitution at Trp265. From the text: (§1) KCNQ2 (human) and KCNQ3 (human) channel cDNAs were propagated and manipulated using the pTLN vector (gifts of Dr M. Taglialatela and Dr T. Jentsch). Introduction of point mutations was accomplished using PCR to combine two fragments each of which contained the mutation in an overlapping region of the sequence (‘two-step’ PCR method). To accomplish this, we used standard PCR approaches to amplify a 5′ fragment and a 3′ fragment (using a ‘flanking primer’ paired with a mutagenic primer). These fragments were then mixed along with the ‘flanking primer’ pair for a second round of PCR to combine the overlapping fragments. The resulting fragment was then subcloned into the appropriate parent vector using EcoRI and NotI restriction enzymes, and the sequence was verified by Sanger sequencing approaches (Genewiz). Sequences for the flanking primers and the ‘forward’ mutagenic primers are provided in Supplementary Table 1 for all mutations that were generated (‘reverse’ mutagenic primers are simply the reverse complement). In all experiments involving homomeric expression of KCNQ3 channels (including in vivo nonsense suppression experiments), the Ala315Thr mutation was introduced to enable efficient trafficking of homomeric KCNQ3. […] The plasmid encoding CivSP was kindly provided by Dr Y. Okamura. Complementary RNA was transcribed from the cDNA using the mMessage mMachine Kit (Ambion). Stage V–VI Xenopus laevis oocytes were prepared as previously described and were injected with cRNA alone or cRNA plus synthetic tRNA (for nonsense suppression, described below). Oocyte preparation was carried out using a protocol approved by the University of British Columbia Animal Care Committee, in accordance with the Canadian Council for Animal Care guidelines. We used female Xenopus laevis frogs 100 g or greater in size. After injection, oocytes were incubated for 12–48 h at 18 °C before recording.
Fluorinated Trp derivatives (5-F1-Trp; 7-F1-Trp; 5,7-F2-Trp (F2-Trp) and 5,6,7-F3-Trp (F3-Trp) were purchased from Asis Chem (Watertown, MA) and Sigma-Aldrich (St Louis, MO). The ‘Ind’ Trp variant was synthesized in-house as described previously. Incorporation of unnatural amino acids into ion channel proteins was carried out as described extensively in prior publications. Briefly, unnatural amino acids (aa) were protected with nitroveratryloxycarbonyl and were activated as the cyanomethyl ester, which were then coupled to the dinucleotide pdCpA (GE Healthcare/Dharmacon, Lafayette, CO). This aminoacyl dinucleotide was subsequently ligated to a modified (G73) Tetrahymena thermophile tRNA. […]
(§2) Voltage-clamped potassium currents were recorded in standard Ringers solution (in mM): 116 NaCl, 2 KCl, 1 MgCl2, 0.5 CaCl2, 5 HEPES (pH 7.4) using an OC-725C voltage clamp (Warner, Hamden, CT). […]
A general note: Two-electrode voltage clamp holds a large cell at a set potential and records current.

The target in assay [2] is T1, KCNQ3* (KCNQ3[Ala315Thr]) (Homo sapiens, UniProt O43525, A315T).
T1 sequence (O43525 1-872 A315T): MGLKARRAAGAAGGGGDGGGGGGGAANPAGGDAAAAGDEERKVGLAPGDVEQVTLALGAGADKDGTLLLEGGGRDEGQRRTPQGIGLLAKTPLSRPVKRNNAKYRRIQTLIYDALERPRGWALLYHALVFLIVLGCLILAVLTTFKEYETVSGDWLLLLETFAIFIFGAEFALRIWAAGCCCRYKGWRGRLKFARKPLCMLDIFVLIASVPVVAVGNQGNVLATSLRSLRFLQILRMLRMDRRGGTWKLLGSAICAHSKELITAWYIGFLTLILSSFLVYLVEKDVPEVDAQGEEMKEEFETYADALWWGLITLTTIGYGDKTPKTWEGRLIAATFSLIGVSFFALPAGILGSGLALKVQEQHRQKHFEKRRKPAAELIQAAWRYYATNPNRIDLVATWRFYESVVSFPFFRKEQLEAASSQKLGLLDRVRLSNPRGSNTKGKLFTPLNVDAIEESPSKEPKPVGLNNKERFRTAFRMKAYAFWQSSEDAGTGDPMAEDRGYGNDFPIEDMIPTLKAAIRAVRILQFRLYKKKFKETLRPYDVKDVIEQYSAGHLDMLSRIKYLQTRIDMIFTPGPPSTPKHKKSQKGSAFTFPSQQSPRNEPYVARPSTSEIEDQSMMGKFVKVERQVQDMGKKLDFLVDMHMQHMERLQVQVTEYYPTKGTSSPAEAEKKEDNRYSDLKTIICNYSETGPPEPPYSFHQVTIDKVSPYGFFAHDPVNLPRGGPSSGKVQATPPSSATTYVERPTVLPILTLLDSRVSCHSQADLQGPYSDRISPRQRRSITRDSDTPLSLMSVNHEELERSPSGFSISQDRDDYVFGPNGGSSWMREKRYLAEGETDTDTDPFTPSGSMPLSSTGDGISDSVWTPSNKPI
Description: Two-electrode voltage clamp of homomeric KCNQ3* channels in Xenopus oocytes. Type of assay: cell-based.
Source text: as §1
Voltage-clamped potassium currents were recorded in standard Ringers solution (in mM): 116 NaCl, 2 KCl, 1 MgCl2, 0.5 CaCl2, 5 HEPES (pH 7.4) using an OC-725C voltage clamp (Warner, Hamden, CT). Glass microelectrodes were backfilled with 3 M KCl and had resistances of 0.1–1 MΩ. Data were filtered at 5 kHz and digitized at 10 kHz using a Digidata 1440A (Molecular Devices) controlled by the pClamp 10 software (Molecular Devices). Drugs were purchased from Toronto Research Chemicals (retigabine) or Tocris (ML-213, flupirtine, ICA-069673, ICA-110381), stored as 100 mM stocks in dimethylsulphoxide and diluted to working concentrations each experimental day.

For assay [3], the target named is KCNQ2 (Homo sapiens, UniProt O43526). Description: Two-electrode voltage clamp of homomeric KCNQ2 channels in Xenopus oocytes. The note with it: 100 μM retigabine (Fig. 1). Type of assay: cell-based.
Chain of KCNQ2 (O43526 whole entry, the tested form may be a part): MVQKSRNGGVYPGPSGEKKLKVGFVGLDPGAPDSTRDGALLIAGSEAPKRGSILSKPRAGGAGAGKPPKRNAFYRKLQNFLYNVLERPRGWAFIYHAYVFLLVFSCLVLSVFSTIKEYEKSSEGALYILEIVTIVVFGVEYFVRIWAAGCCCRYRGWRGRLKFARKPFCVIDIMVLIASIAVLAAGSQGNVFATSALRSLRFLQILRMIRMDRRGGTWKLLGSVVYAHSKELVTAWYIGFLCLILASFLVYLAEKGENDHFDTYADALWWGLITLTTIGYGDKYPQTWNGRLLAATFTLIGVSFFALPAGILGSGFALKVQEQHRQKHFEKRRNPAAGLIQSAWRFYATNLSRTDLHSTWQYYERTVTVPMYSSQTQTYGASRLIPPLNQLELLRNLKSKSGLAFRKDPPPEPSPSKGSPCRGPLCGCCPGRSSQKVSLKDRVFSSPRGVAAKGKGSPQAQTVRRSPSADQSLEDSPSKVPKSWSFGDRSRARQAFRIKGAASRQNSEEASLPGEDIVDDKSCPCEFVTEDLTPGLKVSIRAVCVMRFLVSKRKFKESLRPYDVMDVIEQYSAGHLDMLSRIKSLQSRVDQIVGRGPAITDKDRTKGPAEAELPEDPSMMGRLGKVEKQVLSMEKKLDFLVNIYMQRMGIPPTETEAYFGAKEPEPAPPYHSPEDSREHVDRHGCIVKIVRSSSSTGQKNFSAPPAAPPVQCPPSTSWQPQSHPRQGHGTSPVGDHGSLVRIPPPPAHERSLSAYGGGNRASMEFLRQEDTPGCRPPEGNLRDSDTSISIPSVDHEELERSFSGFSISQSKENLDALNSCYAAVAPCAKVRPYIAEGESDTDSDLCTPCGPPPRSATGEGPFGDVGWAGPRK
Source text: (§3) KCNQ2 (human) and KCNQ3 (human) channel cDNAs were propagated and manipulated using the pTLN vector (gifts of Dr M. Taglialatela and Dr T. Jentsch). Introduction of point mutations was accomplished using PCR to combine two fragments each of which contained the mutation in an overlapping region of the sequence (‘two-step’ PCR method). To accomplish this, we used standard PCR approaches to amplify a 5′ fragment and a 3′ fragment (using a ‘flanking primer’ paired with a mutagenic primer). These fragments were then mixed along with the ‘flanking primer’ pair for a second round of PCR to combine the overlapping fragments. The resulting fragment was then subcloned into the appropriate parent vector using EcoRI and NotI restriction enzymes, and the sequence was verified by Sanger sequencing approaches (Genewiz). Sequences for the flanking primers and the ‘forward’ mutagenic primers are provided in Supplementary Table 1 for all mutations that were generated (‘reverse’ mutagenic primers are simply the reverse complement). […]
as §2

Assay [4] concerns the target T2, KCNQ2/3 heteromers (Homo sapiens, UniProt O43525+O43526).
T2 construct: expressed in transfected cells; host or cells: Xenopus laevis oocytes co-injected with KCNQ2 and KCNQ3 mRNA (1:1)
Put plainly: Two-electrode voltage clamp of heteromeric KCNQ2/3 channels in Xenopus oocytes. Type of assay: cell-based. Particulars: 1:1 injected mRNA.
Source text: as §3, §2

Assay [5] concerns KCNQ3*[Trp265Ind]. Put plainly: Two-electrode voltage clamp of Ind-rescued KCNQ3*[Trp265TAG] channels (nonsense suppression). Type of assay: cell-based, human. The note with it: Ind at position 265; up to 100 μM retigabine.
Source text: as §3, §2

In assay [6] the target is T3, KCNQ3*[Trp265TAG] rescued with Trp (Homo sapiens, UniProt O43525, A315T).
T3 construct: expressed in transfected cells; host or cells: Xenopus laevis oocytes co-injected with KCNQ3*[Trp265TAG] cRNA and Trp-acylated suppressor tRNA
T3 sequence (O43525 1-872 A315T): T1 sequence (O43525 1-872 A315T)
Put plainly: Two-electrode voltage clamp of Trp-rescued KCNQ3*[Trp265TAG] channels (nonsense suppression). Type of assay: cell-based. The note with it: 1 μM retigabine.
Source text: as §3, §2

The target in assay [7] is T4, KCNQ3*[Asn220Cys] (Homo sapiens, UniProt O43525, A315T/N220C).
T4 sequence (O43525 1-872 N220C/A315T): T1 sequence (O43525 1-872 A315T) with N220C
Put plainly: Two-electrode voltage clamp of KCNQ3*[Asn220Cys] channels in Xenopus oocytes. Type of assay: cell-based. Particulars: 1 μM retigabine, Asn220Cys mutant.
Source text: as §3, §2

Assay [8] deals with KCNQ3* mutants at Thr271, Leu272, Leu314 and Leu338. Put plainly: Two-electrode voltage clamp of KCNQ3* mutants at Thr271, Leu272, Leu314, Leu338. Type of assay: cell-based, human. Particulars: functional mutants, up to 300 μM retigabine.
Source text: as §3, §2

Assay [9] relates to KCNQ1. Particulars: KCNQ1 lacks the S5 Trp; cited from earlier work.

Changes are numbered by the printed parent chain. Where two headings read alike, the source gives them in different places.

T2 sequence (O43526 whole entry): as the sequence (O43526 whole entry, the tested form may be a part) above
T2 sequence (O43525 whole entry): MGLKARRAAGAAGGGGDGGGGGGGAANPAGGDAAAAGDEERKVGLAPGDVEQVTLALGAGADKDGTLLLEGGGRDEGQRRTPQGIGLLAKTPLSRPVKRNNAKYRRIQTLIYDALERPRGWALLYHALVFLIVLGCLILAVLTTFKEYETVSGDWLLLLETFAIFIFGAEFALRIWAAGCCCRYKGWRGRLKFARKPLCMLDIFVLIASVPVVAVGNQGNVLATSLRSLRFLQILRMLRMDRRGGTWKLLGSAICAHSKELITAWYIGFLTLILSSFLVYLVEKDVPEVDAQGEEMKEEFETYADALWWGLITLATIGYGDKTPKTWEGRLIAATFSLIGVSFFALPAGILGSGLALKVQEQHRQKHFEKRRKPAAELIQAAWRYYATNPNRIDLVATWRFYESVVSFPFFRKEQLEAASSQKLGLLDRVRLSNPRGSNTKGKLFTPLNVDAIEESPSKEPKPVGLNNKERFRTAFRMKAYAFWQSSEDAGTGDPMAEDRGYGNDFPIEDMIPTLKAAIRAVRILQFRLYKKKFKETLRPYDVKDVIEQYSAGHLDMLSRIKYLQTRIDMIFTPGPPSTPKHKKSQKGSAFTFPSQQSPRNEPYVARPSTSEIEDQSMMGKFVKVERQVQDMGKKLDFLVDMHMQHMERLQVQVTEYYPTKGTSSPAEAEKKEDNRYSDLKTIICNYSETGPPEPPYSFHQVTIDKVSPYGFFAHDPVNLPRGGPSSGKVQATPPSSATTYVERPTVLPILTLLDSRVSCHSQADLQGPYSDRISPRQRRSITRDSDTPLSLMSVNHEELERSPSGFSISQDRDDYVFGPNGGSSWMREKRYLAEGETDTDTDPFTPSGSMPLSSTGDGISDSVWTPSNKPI

For `O=C(Nc1cnc(Cl)nc1)c1ccc(F)c(F)c1` [ICA-069673], the “drug potency relative to Trp-rescued channels” value in [1] is given as “not as pronounced”.

In the case of `O=C(Nc1ccc(Cl)nc1)c1ccc(Cl)cc1` [ICA-110381], the “drug potency relative to Trp-rescued channels” value in assay [1] was “not as pronounced”. For the same compound, the “activation relative to Trp channels” value in [1] (F3-Trp-substituted channels) is given as “considerably more activation”.

For the compound `Cc1cc(C)c(NC(=O)C2CC3CCC2C3)c(C)c1` (stereo not shown) [ML-213], in assay [2] (KCNQ3* channels, n=5, ± s.e., read-out: EC50 for shift of activation V1/2), the EC50 was found to be 3.6 ± 0.2 µM.

In the case of `CCOC(=O)Nc1ccc(NCc2ccc(F)cc2)cc1N` [retigabine], the EC50 in assay [2] worked out at 11.6 ± 0.4 µM. In assay [2] (KCNQ3* channels, rarely greater than), the “increase in peak current” value is at most 15%. Moreover, the “hyperpolarizing shift of the V1/2 of activation” value is given as 40–60 mV in assay [2] (homomeric KCNQ3*, Xenopus oocytes, 100 μM retigabine (Fig. 1)) and 40–60 mV in [3]. Besides, the “stabilization of channel opening, ΔG=Δ(zFV1/2)” value in assay [2] (saturating retigabine, calculated from shift of conductance–voltage relationship) is about 6 kcal/mol. The retigabine-mediated gating shift in [4] is about −40 mV; in assay [8], “retained a large retigabine-mediated gating shift”. Also, the “activation of channels (gating shift, activation kinetics)” value in assay [5] is “entirely abolishes retigabine activation”. The “shift in the voltage dependence of activation” value was “much larger response” in [1] (1 μM retigabine, F3-Trp at Trp265) and “very little shift” in assay [6]. Moreover, the “gating shift / sensitization to retigabine” value in assay [7] was “unable to generate a marked gating shift”. Also, in assay [9], the “hyperpolarizing shift of V1/2 of activation” value is recorded as “absent”.

Values taken from article PMC4561856, “Atomic basis for therapeutic activation of neuronal potassium channels” (Nature Communications, 2015).
